According to EP0934745B1, “Use of androsterone derivatives for inhibiting DNA binding of ap-1 and airway smooth muscle proliferation” (CHARLOTTE-MECKLENBURG HOSPITAL doing business as Carolinas …, priority 1998, dated 1999):

Legend:
[1] = molecular target: T1, glucose-6-phosphate dehydrogenase (G6PDH) (Rattus norvegicus, UniProt P05370); test: G6PDH activity after pretreatment of intact airway smooth muscle monolayers; format: cell-based; details: for G6PDH activity of subsequent cell lysates: monolayers pretreated with concentrations that inhibited cell proliferation, result in words
T1 construct: endogenous in cells; host or cells: primary rat tracheal (airway) smooth muscle cells
Protocol: After 1 hour cells were lysed and G6PDH activity was assayed as described below. In other experiments, G6PDH activity was measured in cell lysates prepared from untreated confluent cultures and treated in vitro with DHEA or 16α-BrEA added to the reaction mixture in 5 µl DMSO. […] Ribonucleosides or deoxyribonucleosides were dissolved in 0.5 ml of 1 N HCl and added to DMEM. The pH of the medium was adjusted to 7.1 by titration with 1 N NaOH, and medium was then sterilized by passage through a […] filter. Growth was measured by MTT reduction after 24, 48 and 96 hours.
To determine if DHEA or its analogs induced programmed cell death, confluent cultures in 6 well plastic plates were treated with 50 or 250 µM DHEA, 10 or 50 µM 16α-BrEA, or vehicle (25 µl DMSO). After 2 hours cells were washed twice with DPBS and scraped on ice into 1.5 ml microfuge tubes and centrifuged 250 g for 5 minutes at 4°C. The cell pellet was gently resuspended in 30 µl DPBS and lysed by addition of 30 µl lysis buffer (80 mM EDTA, 1.6% [wt/vol] sodium lauryl sarcosinate and 5 mg/ml proteinase K in 200 mM Tris-HCl buffer, pH 8.0). Lysate was incubated at 50°C for 1.5 hours. RNAse A (0.2 mg/ml) was added and the lysate was incubated for another 30 minutes at 37°C. DNA bands were separated along with a DNA ladder standard on a 1% agarose gel at 60 V for 1 hour, intercalated with ethidium bromide, and visualized and photographed under ultraviolet light. Measurement of Glucose-6-Phosphate Dehydrogenase Activity. Cultures were washed three times with cold DPBS on ice, scraped into ice cold buffer (10 mM MgCl2 in 50 mM Tris, pH 8.0) and sonicated on ice. G6PDH activity was then assayed by the method of Jones and Andrews (Jones, J.T., and Andrews, S.G., "Glucose-6-phosphate dehydrogenase activity in somatic and germinal cells of the mouse testis," J. Reproduc. Fertility, 54, 357-362 (1978)) in a reaction mixture containing 50-200 µl cell lysate, 20 µl of 10 mM β-nicotinamide adenine dinucleotide phosphate (NADP) and 20 µl of 10 mM D-glucose-6-phosphate (G6P) in a total volume of 1 ml buffer (10 mM MgCl2 in 50 mM Tris, pH 8.0). The reaction was initiated by addition of G6P. The linear increase in absorbance at 340 nm was monitored at 25°C for 300 seconds. Activity was expressed as units/mg protein, where 1.0 unit will oxidase 1.0 µmole of G6P to 6-phospho-D-gluconate per min in the presence of NADP. Protein was measured using the BCA protein assay (Rockford, IL). Immunoblot Assay for p21^ras and c-fos Proteins. For measurement of p21^ras, cells were washed twice-with cold DPBS and swelled on ice for 15 minutes with 500 µl cold lysis buffer (10 mM HEPES, 1 mM MgCl2, 1 mM EDTA, 1 µM pepstatin, 2 µg/ml aprotinin, and 1 mM phenylmethylsulfonyl fluoride). See Schulz and Nyce (1991), supra. Cells were then scraped into 1.5 ml polypropylene tubes, homogenized and clarified by centrifugation at 3,000 g for 1 minute at 4°C. The postnuclear supernatant was centrifuged 100,000 g for 30 minutes at 4°C. Supernatants were collected and pelleted membranes were resuspended in detergent buffer (1% Triton X-100, 1% sodium deoxycholate, 0.1% SDS, 150 mM NaCl, 1 µM pepstatin, 2 µg/ml aprotinin and 1 mM phenylmethylsulfonyl fluoride in 25 mM Tris, pH 7.4). Aliquots of supernatant and membrane fractions were removed for protein determination using the BCA protein assay. Bromophenol blue and β-mercaptoethanol were added to the remaining sample to a final concentration of 0.002% (wt/vol) and 5% (vol/vol), respectively. Lysates were then boiled for 5 minutes at 100°C and stored at -80°C until immunoblotting was performed.
Activity is expressed as % inhibition of DMSO vehicle-treated controls by 16α-bromoepiandrosterone (BrEA) or dehydroepiandrosterone (DHEA). DMSO alone caused no reduction in G6PDH activity under assay conditions. Each bar represents the mean of at least 3 experiments. Methods are described in the text. […]

Human Erythrocyte G6PDH = molecular target: T2, Human Erythrocyte G6PDH (Homo sapiens, UniProt P11413); test: Inhibition of purified glucose 6-phosphate dehydrogenase activity; format: biochemical; details: 0.01 U/ml Type XXVI G6PDH from human erythrocytes, vs DMSO vehicle-treated controls, read-out: PERCENT INHIBITION OF GLUCOSE 6-PHOSPHATE DEHYDROGENASE ACTIVITY
T2 construct: purified G6PDH from human erythrocytes; purchased Sigma Type XXVI; host or cells: human erythrocytes (natural source)

[2] = test system: airway smooth muscle cells; test: Cytotoxicity: lactate dehydrogenase activity in cell supernatants; format: cell-based, rat; details: confluent cells incubated 24 hours; compared with DMSO vehicle (Figure 4B)
Protocol: To study the effect of DHEA and 16α-BrEA on activation of AP-1, a secondary response important in cellular growth and proliferation (Angel and Karin, (1991), supra) confluent monolayers of airway smooth muscle in 75-cm^2 Petri dishes were growth arrested for 24 hours in 0.5% FBS and DMEM and pretreated 2 hours with DHEA, 16α-BrEA or DMSO vehicle. Cells were then stimulated with 10% FBS in DMEM for 6 hours, nuclear protein was harvested, and electrophoretic mobility shift assays were performed as described below to determine if treatment with DHEA and 16α-BrEA impaired DNA binding of AP-1. Measurement of Cytotoxicity and Apoptosis. To assess for cytotoxicity, DHEA or 16α-BrEA were added to wells of airway smooth muscle cells previously grown to confluence in DMEM and 10% FBS. After 24 hours, media was microfuged 5 minutes and supernatant was assayed for lactate dehydrogenase activity using a commercially available assay (DG-1340K from Sigma). Cells were washed twice in DPBS and exposed to trypan blue dye (0.04% in Hanks' balanced salt solution). Cell counts were performed in five random fields using a 0.01-cm^2 ocular grid to quantitate the average number of damaged or dead cells that accumulated dye. […]

T1 sequence (P05370 whole entry): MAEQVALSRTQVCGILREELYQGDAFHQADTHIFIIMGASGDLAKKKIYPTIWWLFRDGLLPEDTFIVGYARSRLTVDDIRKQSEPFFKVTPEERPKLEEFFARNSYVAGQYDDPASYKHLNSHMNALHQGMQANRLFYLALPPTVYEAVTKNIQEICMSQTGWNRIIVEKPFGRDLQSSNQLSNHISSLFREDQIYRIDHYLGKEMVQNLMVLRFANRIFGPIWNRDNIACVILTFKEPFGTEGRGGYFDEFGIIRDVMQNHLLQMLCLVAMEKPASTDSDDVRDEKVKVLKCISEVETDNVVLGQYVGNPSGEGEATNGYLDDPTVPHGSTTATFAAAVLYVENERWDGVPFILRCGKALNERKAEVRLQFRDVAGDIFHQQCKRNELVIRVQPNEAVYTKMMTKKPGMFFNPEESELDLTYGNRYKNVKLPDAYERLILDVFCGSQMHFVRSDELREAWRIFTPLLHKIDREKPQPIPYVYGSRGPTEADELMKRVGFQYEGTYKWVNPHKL
T2 sequence (P11413 whole entry): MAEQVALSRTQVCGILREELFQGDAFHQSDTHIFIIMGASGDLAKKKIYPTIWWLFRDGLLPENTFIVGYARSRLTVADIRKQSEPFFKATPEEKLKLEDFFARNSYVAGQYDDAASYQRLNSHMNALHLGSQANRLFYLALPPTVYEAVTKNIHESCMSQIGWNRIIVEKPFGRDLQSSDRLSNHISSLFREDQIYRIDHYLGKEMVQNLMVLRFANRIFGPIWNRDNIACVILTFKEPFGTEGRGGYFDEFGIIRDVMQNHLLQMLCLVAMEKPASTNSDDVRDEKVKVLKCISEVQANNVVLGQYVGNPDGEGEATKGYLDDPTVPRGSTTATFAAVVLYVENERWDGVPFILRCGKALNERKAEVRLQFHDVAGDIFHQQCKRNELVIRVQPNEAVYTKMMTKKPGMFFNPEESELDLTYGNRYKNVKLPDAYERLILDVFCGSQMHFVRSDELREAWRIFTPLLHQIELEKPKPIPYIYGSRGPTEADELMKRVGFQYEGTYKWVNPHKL

C[C@]12CC[C@H](O)CC1=CC[C@@H]1[C@@H]2CC[C@]2(C)C(=O)CC[C@@H]12 [DHEA, dehydroepiandrosterone]
inhibition at 25 µM ([1]; 25 µM, Intact Airway Smooth Muscle monolayers pretreated 1 hour before harvest, read-out: PERCENT INHIBITION OF GLUCOSE 6-PHOSPHATE DEHYDROGENASE ACTIVITY): 0%
inhibition at 50 µM ([1]; 50 µM, Intact Airway Smooth Muscle monolayers pretreated 1 hour before harvest, read-out: PERCENT INHIBITION OF GLUCOSE 6-PHOSPHATE DEHYDROGENASE ACTIVITY): 0%
inhibition at 100 µM ([1]; 100 µM, Intact Airway Smooth Muscle monolayers pretreated 1 hour before harvest, read-out: PERCENT INHIBITION OF GLUCOSE 6-PHOSPHATE DEHYDROGENASE ACTIVITY): 6 ± 7%
inhibition at 250 µM ([1]; 250 µM, Intact Airway Smooth Muscle monolayers pretreated 1 hour before harvest, read-out: PERCENT INHIBITION OF GLUCOSE 6-PHOSPHATE DEHYDROGENASE ACTIVITY): 24 ± 9%
G6PDH activity of subsequent cell lysates [1]: not significantly reduced

C[C@]12CC[C@H](O)C[C@@H]1CC[C@@H]1[C@@H]2CC[C@]2(C)C(=O)[C@H](Br)C[C@@H]12 [16α-BrEA, 16α-bromoepiandrosterone]
inhibition at 25 µM (Human Erythrocyte G6PDH; 25 µM): 47 ± 6%
inhibition at 50 µM (Human Erythrocyte G6PDH; 50 µM): 57 ± 9%
G6PDH activity of subsequent cell lysates [1]: not significantly reduced
LDH activity in supernatant [2]: does not increase LDH activity
